Measured values: US10028949B2, “Parenteral formulations of lipophilic pharmaceutical agents and methods for preparing and using the same” (priority 2011, dated 2018)
Read-outs that look alike come from different tables or passages of the source.

How the values were obtained:
[1] = Stability of Bu formulations by HPLC; format: physicochemical; conditions: for stability maintained: stock formulation diluted with D5W
Procedure: It was initially important to describe short-term stability of the Bu/acetone/PEG mixture. This was necessary to determine if the vacuum-extraction step could be utilized without undue chemical degradation of Bu. The Bu (5 mg/mL) in acetone/PEG400 (1:2, v/v) was incubated at room temperature and quantified by HPLC after 0, 1, 2, 4, 8 and 24 hours. Second, the inventors confirmed that Bu would be stable in the VE-acetone/PEG/Bu complex. Therefore, to determine long-term stability Bu was dissolved in acetone (10 mg/mL), then mixed with PEG 400 (ratio 1:2, v/v). The acetone was extracted from the mixture under vacuum at room temperature (RT). The VE-acetone/PEG400/Bu was stored either at room temperature or 37° C. for 2 months in sealed tubes. Finally, Bu (1 mg/mL) in the final use formulation of VE-acetone/PEG 400/D5W (0:40:60, v/v/v), was incubated at room temperature and analyzed by HPLC at 0, 1, 2, 4, 8 and 15 hours to determine short-term stability. Triplicate samples were quantitatively analyzed with HPLC at all time points after appropriate dilution of the samples in the stability studies.
Bu was dissolved at a concentration of about 10 mg/mL in acetone only or in VE-acetone/PEG (prototype stock solvent vehicle) and incubated at RT (22° C.) and at 37° C. The resulting Bu concentration was measured by HPLC in samples taken immediately after solubilization, then every few hours for 8 hours, and then at gradually increasing time intervals for up to 60 days.

erythrocytes = assay: Hemolysis studies in vitro; format: cell-based; conditions: drug concentrations of 100 μg/mL or more
From the text: The hemolytic potential of the final use-formulation should also be minimal, since the terminal use formulation/infusate contain Bu and PEG as the only significant solutes to be infused, i.e. this is basically D5W with a moderate amount of PEG (40%, v/v) as its main additive. The procedure of Parthasarathy et al. was used to examine the hemolytic potential of a few selected formulations, and the LD50 values of the most optimal formulation was constructed as previously described (Parthasarathy et al., 1994). Briefly, heparinized blood was mixed with an equal volume of Alsever's solution (Alsever and Ainslie, 1941). This mixture was washed twice in PBS, and a 10% (volume per volume, v/v) erythrocyte/PBS solution was then prepared and mixed with increasing amounts of PEG (essentially the VE-acetone/PEG prototype vehicle) with or without addition of D5W and with or without Bu. The resulting mixtures were incubated for 4 hours at 37° C. […] The release of hemoglobin in the supernatant (i.e., hemolysis) was determined spectrophotometrically at a wavelength of 550 nm. Maximum lysis was measured against a reference erythrocyte solution that had been lysed by hypotonic shock. The hemolytic potential of the vehicle and the complete final use-formulation (Bu/VE-acetone/PEG/D5W) was evaluated as described (Parthasarathy et al., 1984). […]

[2] = Parenteral busulfan pharmacology in mice
Procedure: Swiss Webster mice with a body weight of 25-30 g were used for the in vivo pharmacology experiments (Harlan-Sprague-Dawley, Houston, Tex.). The animals were allowed a minimum of 3-4 days after arrival to acclimatize to the new environment and allowed free access to commercial feed and hyperchlorinated, reverse-osmosis purified water prior to and during the experimentation period. The animal-housing facilities meet the requirements of the USDA, NIH, and DHHS.
Busulfan at a dose of 10 mg/kg BW was used as an appropriate and representative single dose that could be administered as a slow IV bolus injection over 3-4 min.
The Bu was formulated in the prototype VE-acetone/PEG vehicle to a stock concentration of about 10 mg/mL and then diluted with D5W to 1 mg/mL and 2 mg/mL (in repeated experiments) so the total dose of 10 mg/kg could be injected in a volume of about 250 μL and 125 μL, respectively, in a tail vein. The Bu concentrations of the final use-formulation were confirmed by HPLC prior to administration.
No anticonvulsant premedication was used in the animals in these experiments to avoid the possible induction of microsomal liver enzymes that could modify Bu metabolism. For the same reason the animals were unanesthetized during the drug injection, only physically restrained.
Blood samples (0.5-1.0 mL) were procured through cardiac puncture under Isoflurane-induced general anesthesia. These samples were drawn in preheparinized tubes at selected time points prior to the drug infusion (“blank”), and from 5 min to 4 hours after drug injection for determination of Bu concentrations. The blood was centrifuged at 1,000×g for 10 min, and plasma was removed and stored at −80° C. until extracted and assayed by HPLC.

[3] = for Solubility / Solubility (mg/mL): room temperature; for Solubility (mg/mL): listed as Bu
[4] = cited from earlier work
[5] = cited from earlier work; for incidence of neurotoxicity, especially serious generalized seizure activity: after Bu-based conditioning therapy
[6] = in vivo; cited from earlier work
physchem = conditions: thermodynamic from solid

CS(=O)(=O)OCCCCOS(C)(=O)=O [Busulfan, 1,4-butanediol dimethanesulfonate]
time stable in solution, stock formulation ([1]; Bu/VE-acetone/PEG stock formulation, approximately 5 mg/mL, RT): ≥ 60 days | time stable, final use-formulation ([1]; VE-acetone/PEG diluted with aqueous diluent to 1 mg/mL, RT): at least 15 hours | stability in DMSO ([1]; in DMSO): rapidly started degrading | time stably dissolved ([1]; in acetone and DMA, RT): at least 7 days | time stable, final clinical use-formulation ([1]; reconstituted with D5W, 0.5 to 2 mg/mL, RT): at least 15 hours | stability maintained ([1]; up to 15 hours at 1 mg/ml): ~100% | stability maintained ([1]; up to 25 hours at 0.5 mg/ml): ~100% | Bu-dependent lysis (erythrocytes): barely exceeded background levels | half-life ([2]; Swiss Webster, mouse, plasma, iv, 10 mg/kg): 2.5 to 3.5 h | tolerability of injections ([2]; mice, 10 mg/kg IV, acute 4-hour observation period): well tolerated | hemolysis in vivo (urine samples) ([2]; mice, 10 mg/kg, urine samples up to 4 hours): no sign of hemolysis | Bu plasma concentrations ([2]; mice, IV 10 mg/kg BW): for several hours remained in the cytotoxic range | Solubility ([3]; Solvent: DMA): 49200 µg/mL | Solubility (mg/mL) ([3]; Solvent: DMA): more than 15 mg/mL | Solubility ([3]; Solvent: DMSO): 77900 µg/mL | Solubility (mg/mL) ([3]; Solvent: DMSO): more than 15 mg/mL | concentration of Bu stably bound in PEG alone ([3]; after mixing with PEG and extraction of the acetone): 5000 to 10000 µg/mL | Solubility ([4]; Solvent: Acetone, in literature): ~25000 µg/mL | Solubility (mg/mL) ([4]; Solvent: Water (The Merck Index)): Negligible (The Merck Index) | incidence of neurotoxicity, especially serious generalized seizure activity ([5]; adults): ≤ 10% | incidence of neurotoxicity, especially serious generalized seizure activity ([5]; children): approximately 7% | EEG abnormalities, patients ([5]; without overt seizure activity): up to 60% | terminal half-life in blood [6]: 2 to 4 h | solubility at 60 minutes (physchem; aqueous buffer, Solubility (mg/mL), Solvent: HCl 6 N, room temperature): 700 µg/mL | solubility at 60 minutes (physchem; aqueous with cosolvent or surfactant or cyclodextrin, Solubility (mg/mL), Solvent: PEG:water 1:1, room temperature): 250 µg/mL | solubility at 60 minutes (physchem; aqueous with cosolvent or surfactant or cyclodextrin, Solubility (mg/mL), Solvent: PEG:water 1:2, room temperature): 190 µg/mL | Solubility (physchem; organic solvent or mixture): 16400 µg/mL | solubility at 60 minutes (physchem; organic solvent or mixture): ~16000 µg/mL | solubility at 60 minutes (physchem; organic solvent or mixture, Solubility (mg/mL), Solvent: Acetic acid, room temperature): 3800 µg/mL | solubility at 60 minutes (physchem; organic solvent or mixture, Solubility (mg/mL), Solvent: Ethanol, room temperature): 300 µg/mL | solubility at 60 minutes (physchem; organic solvent or mixture, Solubility (mg/mL), Solvent: PEG (−400), room temperature): 200 µg/mL | solubility at 60 minutes (physchem; organic solvent or mixture, Solubility (mg/mL), Solvent: Propylene glycol, room temperature): 200 µg/mL
